Converted amounts (≈) assume the structure as drawn. Read-outs that look alike come from different tables or passages of the source.
What was measured:
[1] = target: LipC (Mycobacterium tuberculosis, UniProt P96402); assay: biochemical; assay type: biochemical; details: for x I50: inhibitor molar excess leading to 50% residual activity after 10 min incubation; for Residual activity (%) 10 min: 10 min incubation; for Residual activity (%) 30 min: 30 min incubation
[2] = tested on: LipF; assay type: biochemical; details: for Residual activity (%) 10 min / Residual activity (%) 30 min: pNPC4
[3] = tested on: LipH; assay type: biochemical; details: pNPC4
[4] = target: LipI (Mycobacterium tuberculosis, UniProt P71668); assay: biochemical; assay type: biochemical; details: for x I50: inhibitor molar excess leading to 50% residual activity after 10 min incubation; for Residual activity (%) 10 min: 10 min incubation; for Residual activity (%) 30 min: 30 min incubation
[5] = tested on: LipN; assay: Inhibition of recombinant LipN, pre-incubation method, residual activity on pNPC4; assay type: biochemical, M. tuberculosis; details: for Residual activity (%) 10 min / Residual activity (%) 30 min: pNPC4
[6] = tested on: LipR; assay type: biochemical; details: pNPC4
[7] = target: LipU (Mycobacterium tuberculosis, UniProt O53424); assay: biochemical; assay type: biochemical; details: for x I50: inhibitor molar excess leading to 50% residual activity after 10 min incubation
[8] = tested on: LipW; assay type: biochemical; details: pNPC4
[9] = target: T1, LipY (Mycobacterium tuberculosis, UniProt I6Y2J4); assay: biochemical; assay type: biochemical, M. tuberculosis; details: for Ki: Apparent K i
T1 sequence (I6Y2J4 1-437): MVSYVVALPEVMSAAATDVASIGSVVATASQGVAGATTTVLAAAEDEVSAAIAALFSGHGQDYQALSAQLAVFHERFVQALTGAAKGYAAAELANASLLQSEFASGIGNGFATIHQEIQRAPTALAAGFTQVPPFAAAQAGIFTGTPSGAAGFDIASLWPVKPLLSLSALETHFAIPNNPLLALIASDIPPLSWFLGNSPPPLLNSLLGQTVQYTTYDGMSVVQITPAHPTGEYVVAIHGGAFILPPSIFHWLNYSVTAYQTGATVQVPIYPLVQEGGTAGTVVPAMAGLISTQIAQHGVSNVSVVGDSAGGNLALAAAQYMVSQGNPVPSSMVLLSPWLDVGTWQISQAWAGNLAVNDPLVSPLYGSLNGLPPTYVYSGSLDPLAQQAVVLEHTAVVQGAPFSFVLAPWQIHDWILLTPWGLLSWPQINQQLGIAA

[10] = target: Cut6 (Mycobacterium tuberculosis, UniProt O53581); assay: biochemical; assay type: biochemical; details: for x I50: inhibitor molar excess leading to 50% residual activity after 10 min incubation
[11] = tested on: M. tuberculosis strain mc^27000; assay: microbe, parasite or virus in culture; assay type: cell-based; details: Mycobacterium tuberculosis
[12] = tested on: M. bovis BCG strain Pasteur 1173P2; assay: microbe, parasite or virus in culture; assay type: cell-based; details: Mycobacterium tuberculosis variant bovis BCG
[13] = tested on: Lip-HSL enzymes; assay: Inhibition of all Lip-HSL enzymes tested, pre-incubation method, residual activity on pNPC4 (statements for the family); assay type: biochemical
[14] = LipC, near stoichiometric proportions of inhibitor (x I<2)
[15] = near stoichiometric proportions of inhibitor (x I<2)
[16] = LipI, near stoichiometric proportions of inhibitor (x I<2)

Chain of Cut6 (O53581 44-336): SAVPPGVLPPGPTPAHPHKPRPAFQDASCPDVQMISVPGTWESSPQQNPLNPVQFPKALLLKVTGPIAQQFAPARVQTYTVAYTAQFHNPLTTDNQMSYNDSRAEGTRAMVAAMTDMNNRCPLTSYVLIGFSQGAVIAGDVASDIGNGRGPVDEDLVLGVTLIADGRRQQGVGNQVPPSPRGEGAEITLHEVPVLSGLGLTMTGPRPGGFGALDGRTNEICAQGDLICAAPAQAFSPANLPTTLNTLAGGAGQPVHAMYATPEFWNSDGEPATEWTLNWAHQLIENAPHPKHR
Chain of LipC (P96402 whole entry): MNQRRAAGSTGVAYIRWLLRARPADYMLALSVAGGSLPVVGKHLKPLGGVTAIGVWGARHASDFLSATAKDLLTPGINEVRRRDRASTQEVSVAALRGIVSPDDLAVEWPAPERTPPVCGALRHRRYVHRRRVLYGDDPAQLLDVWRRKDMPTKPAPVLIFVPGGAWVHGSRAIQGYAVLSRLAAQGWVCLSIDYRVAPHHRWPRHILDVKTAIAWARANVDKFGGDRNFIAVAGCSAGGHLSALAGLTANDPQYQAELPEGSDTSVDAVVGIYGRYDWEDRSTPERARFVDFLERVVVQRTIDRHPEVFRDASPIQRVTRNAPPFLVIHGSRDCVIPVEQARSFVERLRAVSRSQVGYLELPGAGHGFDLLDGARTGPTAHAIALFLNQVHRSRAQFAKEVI
Chain of LipI (P71668 whole entry): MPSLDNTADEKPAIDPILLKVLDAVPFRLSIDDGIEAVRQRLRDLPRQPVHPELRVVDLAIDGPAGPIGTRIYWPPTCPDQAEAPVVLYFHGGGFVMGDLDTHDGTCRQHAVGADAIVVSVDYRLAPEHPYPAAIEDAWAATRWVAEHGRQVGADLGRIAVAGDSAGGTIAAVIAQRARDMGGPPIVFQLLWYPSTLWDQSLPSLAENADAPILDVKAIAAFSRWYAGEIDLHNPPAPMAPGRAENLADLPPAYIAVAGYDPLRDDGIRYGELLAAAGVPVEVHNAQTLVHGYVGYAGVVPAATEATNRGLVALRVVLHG
Chain of LipU (O53424 whole entry): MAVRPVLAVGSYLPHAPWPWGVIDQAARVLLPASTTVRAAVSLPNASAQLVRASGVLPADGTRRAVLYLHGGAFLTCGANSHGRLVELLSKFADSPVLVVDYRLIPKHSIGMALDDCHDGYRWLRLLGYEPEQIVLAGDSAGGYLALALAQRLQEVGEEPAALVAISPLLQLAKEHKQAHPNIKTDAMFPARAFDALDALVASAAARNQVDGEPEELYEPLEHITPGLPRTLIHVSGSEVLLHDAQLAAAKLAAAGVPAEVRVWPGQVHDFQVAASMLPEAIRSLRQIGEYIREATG

COc1nn(-c2cccc(Oc3ccccc3)c2)c(=O)o1 [MmPPOX, 5-methoxy-N-3-(meta-phenoxyphenyl)-1,3,4-oxadiazol-2(3H)-one]
Ki [1]: 1 µM
x I50 ratio ([1]; LipC, calculated as x I50 (THL)/x I50 (MmPPOX)): >10^3
x I50 ([1]; LipC, pNPC4): 0.5
Half inactivation time (t1/2) [1, 14]: < 1 min
Remaining activities [1, 14]: < 10%
Residual activity (%) 10 min ([1]; LipC, x I = 2, pNPC4): 7%
Residual activity (%) 30 min ([1]; LipC, x I = 2, pNPC4): 5%
Residual activity (%) 10 min ([1]; LipC, x I = 5, pNPC4): 0%
Residual activity (%) 30 min ([1]; LipC, x I = 5, pNPC4): 0%
Half inactivation time (t1/2) [2, 15]: < 1 min
Remaining activities [2, 15]: < 10%
Residual activity (%) 10 min ([2]; x I = 1, 10 min incubation): 7%
Residual activity (%) 30 min ([2]; x I = 1, 30 min incubation): 11%
Residual activity (%) 10 min ([2]; x I = 2, 10 min incubation): 0%
Residual activity (%) 30 min ([2]; x I = 2, 30 min incubation): 0%
Residual activity (%) 10 min ([3]; x I = 5, 10 min incubation): 9%
Residual activity (%) 30 min ([3]; x I = 5, 30 min incubation): 9%
Residual activity (%) 10 min ([3]; x I = 10, 10 min incubation): 0%
Residual activity (%) 30 min ([3]; x I = 10, 30 min incubation): 0%
Ki [4]: 0.1 µM
x I50 ratio ([4]; LipI, calculated as x I50 (THL)/x I50 (MmPPOX)): 131.8
x I50 ([4]; LipI, pNPC4): 0.5
Half inactivation time (t1/2) [4, 16]: < 1 min
Remaining activities [4, 16]: < 10%
Residual activity (%) 10 min ([4]; LipI, x I = 1, pNPC4): 7%
Residual activity (%) 30 min ([4]; LipI, x I = 1, pNPC4): 6%
Residual activity (%) 10 min ([4]; LipI, x I = 2, pNPC4): 0%
Residual activity (%) 30 min ([4]; LipI, x I = 2, pNPC4): 0%
Half inactivation time (t1/2) [5, 15]: < 1 min
Remaining activities [5, 15]: < 10%
Residual activity (%) 10 min ([5]; x I = 2, 10 min incubation): 6%
Residual activity (%) 30 min ([5]; x I = 2, 30 min incubation): 6%
Residual activity (%) 10 min ([5]; x I = 5, 10 min incubation): 0%
Residual activity (%) 30 min ([5]; x I = 5, 30 min incubation): 0%
Residual activity (%) 10 min ([6]; x I = 20, 10 min incubation): 7%
Residual activity (%) 30 min ([6]; x I = 20, 30 min incubation): 15%
Ki ([7]; Apparent K i, pNPC4): 5.1 µM
x I50 ratio ([7]; calculated as x I50 (THL)/x I50 (MmPPOX)): >333
x I50 ([7]; pNPC4): 1.5
Residual activity (%) 10 min ([7]; x I = 20, 10 min incubation, pNPC4): 10%
Residual activity (%) 30 min ([7]; x I = 20, 30 min incubation, pNPC4): 17%
Residual activity (%) 10 min ([8]; x I = 20, 10 min incubation): 6%
Residual activity (%) 30 min ([8]; x I = 20, 30 min incubation): 13%
Residual activity (%) 10 min [9]: 5%
Residual activity (%) 30 min [9]: 5%
x I50 ratio [9]: 0.4
Ki [9]: 7.7 µM
Ki ([10]; Apparent K i, Cut6, pNPC4): > 1000 µM
Ki ([10]; Apparent K i, Cut6, pNPC4, value of the text): 6400 µM
x I50 ratio ([10]; Cut6, calculated as x I50 (THL)/x I50 (MmPPOX)): <0.1
x I50 ([10]; Cut6, pNPC4): 227.9
Activity in the presence of inhibitor ([10]; Cut6, x I = 20): retained full activity
Residual activity (%) 10 min ([10]; Cut6, x I = 20, 10 min incubation, pNPC4): 100%
Residual activity (%) 30 min ([10]; Cut6, x I = 20, 30 min incubation, pNPC4): 100%
Apparent K i for Cut6 relative to those of Lip-HSL proteins (times higher) ([10]; Cut6 vs Lip-HSL proteins): about 1000
MIC [11]: ~25 µg/mL (≈ 87.9 µM)
MIC [12]: 10 to 20 µg/mL (≈ 35.2 to 70.4 µM)
Activity restoration: increase of residual activity after 30 min as compared to 10 min ([13]; LipF, LipR, LipU and LipW): 4–8%
Half inactivation time (t1/2) ([13]; all Lip-HSL enzymes tested, x I = 20): < 1 min
Remaining activities ([13]; all Lip-HSL enzymes tested, x I = 20, 10 min incubation, pNPC4): less than 15%

CCCCCCCCCCC[C@@H](C[C@@H]1OC(=O)[C@H]1CCCCCC)OC(=O)[C@H](CC(C)C)NC=O [THL, Tetrahydrolipstatin]
x I50 ([1]; LipC, pNPC4): >500
Ki ([1]; LipC, pNPC4, read-out: Apparent K i): > 1000 µM
x I50 ([4]; LipI, pNPC4): 65.9
Ki ([4]; LipI, pNPC4, read-out: Apparent K i): 13.1 µM
x I50 ([7]; pNPC4): >500
Ki ([7]; pNPC4, read-out: Apparent K i): > 1000 µM
Ki [9]: 3.2 µM
x I50 ([10]; Cut6, pNPC4): 9.7
Ki ([10]; Cut6, pNPC4, read-out: Apparent K i): 142 µM
MIC [11]: 20 µg/mL (≈ 40.3 µM)
MIC [12]: 7.5 µg/mL (≈ 15.1 µM)

Source: publication PMC3460867, “MmPPOX Inhibits Mycobacterium tuberculosis Lipolytic Enzymes Belonging to the Hormone-Sensitive Lipase Family and Alters Mycobacterial Growth” (PLoS ONE, 2012)
